Experimental data: ChEMBL document CHEMBL1201862, “PubChem BioAssay data set” (2004)
Blank lines part the entries; values can stand above or below the compound they belong to. Activity calls are given as the source filed them.

What was measured:
[1] = growth suppression of PTEN-null colon cells, dose response, cell-based, HCT116 PTEN knockout (AID 1047); type: functional;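 note: HCT116 colon tumor cells with PTEN knocked out; cells exposed to compound for 60 hours before readout; potency for loss of cell viability measured by luminescence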
[2] = growth suppression of beta-catenin-knockout colon cells, dose response, cell-based, HCT116, human colon tumor (AID 1045); type: functional;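 note: HCT116 colon tumor cells with beta catenin knocked out; cells exposed to compound for 60 hours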
[3] = target: Glucose-6-phosphate 1-dehydrogenase (Homo sapiens, UniProt P11413); assay: human G6PD enzyme inhibitors, dose response, selectivity assay for P. falciparum G6PD inhibitor project, biochemical, fluorescence (AID 504792); type: functional
[4] = target: Peroxisome proliferator-activated receptor gamma/Nuclear receptor coactivator 3 (Homo sapiens, UniProt P37231); assay: TR-FRET dose response biochemical High Throughput Screening assay for agonists of the steroid receptor coactivator 3 (SRC-3) recruitment by the peroxisome proliferator-activated receptor gamma (PPAR gamma): non-selective agonists. [Related pubchem assays: 1301 (Confirmation screen.), 1048 (Primary screen.)]; type: functional
Peroxisome proliferator-activated receptor gamma/Nuclear receptor coactivator 3, sequence (P37231 whole entry): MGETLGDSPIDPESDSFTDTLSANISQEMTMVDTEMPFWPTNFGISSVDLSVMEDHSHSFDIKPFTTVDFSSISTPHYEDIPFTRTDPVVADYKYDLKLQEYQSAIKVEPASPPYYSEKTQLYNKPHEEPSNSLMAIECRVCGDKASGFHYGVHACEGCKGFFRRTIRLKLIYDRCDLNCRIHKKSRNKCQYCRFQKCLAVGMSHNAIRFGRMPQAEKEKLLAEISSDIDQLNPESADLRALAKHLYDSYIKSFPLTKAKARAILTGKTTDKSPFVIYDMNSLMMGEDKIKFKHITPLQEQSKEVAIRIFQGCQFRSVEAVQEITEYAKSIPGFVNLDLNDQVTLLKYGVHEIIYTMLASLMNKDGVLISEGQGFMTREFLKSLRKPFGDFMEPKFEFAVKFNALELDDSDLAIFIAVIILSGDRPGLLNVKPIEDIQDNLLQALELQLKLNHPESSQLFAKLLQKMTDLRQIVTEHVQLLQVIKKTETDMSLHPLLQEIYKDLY
Peroxisome proliferator-activated receptor gamma/Nuclear receptor coactivator 3, sequence (Q9Y6Q9 whole entry, further chain): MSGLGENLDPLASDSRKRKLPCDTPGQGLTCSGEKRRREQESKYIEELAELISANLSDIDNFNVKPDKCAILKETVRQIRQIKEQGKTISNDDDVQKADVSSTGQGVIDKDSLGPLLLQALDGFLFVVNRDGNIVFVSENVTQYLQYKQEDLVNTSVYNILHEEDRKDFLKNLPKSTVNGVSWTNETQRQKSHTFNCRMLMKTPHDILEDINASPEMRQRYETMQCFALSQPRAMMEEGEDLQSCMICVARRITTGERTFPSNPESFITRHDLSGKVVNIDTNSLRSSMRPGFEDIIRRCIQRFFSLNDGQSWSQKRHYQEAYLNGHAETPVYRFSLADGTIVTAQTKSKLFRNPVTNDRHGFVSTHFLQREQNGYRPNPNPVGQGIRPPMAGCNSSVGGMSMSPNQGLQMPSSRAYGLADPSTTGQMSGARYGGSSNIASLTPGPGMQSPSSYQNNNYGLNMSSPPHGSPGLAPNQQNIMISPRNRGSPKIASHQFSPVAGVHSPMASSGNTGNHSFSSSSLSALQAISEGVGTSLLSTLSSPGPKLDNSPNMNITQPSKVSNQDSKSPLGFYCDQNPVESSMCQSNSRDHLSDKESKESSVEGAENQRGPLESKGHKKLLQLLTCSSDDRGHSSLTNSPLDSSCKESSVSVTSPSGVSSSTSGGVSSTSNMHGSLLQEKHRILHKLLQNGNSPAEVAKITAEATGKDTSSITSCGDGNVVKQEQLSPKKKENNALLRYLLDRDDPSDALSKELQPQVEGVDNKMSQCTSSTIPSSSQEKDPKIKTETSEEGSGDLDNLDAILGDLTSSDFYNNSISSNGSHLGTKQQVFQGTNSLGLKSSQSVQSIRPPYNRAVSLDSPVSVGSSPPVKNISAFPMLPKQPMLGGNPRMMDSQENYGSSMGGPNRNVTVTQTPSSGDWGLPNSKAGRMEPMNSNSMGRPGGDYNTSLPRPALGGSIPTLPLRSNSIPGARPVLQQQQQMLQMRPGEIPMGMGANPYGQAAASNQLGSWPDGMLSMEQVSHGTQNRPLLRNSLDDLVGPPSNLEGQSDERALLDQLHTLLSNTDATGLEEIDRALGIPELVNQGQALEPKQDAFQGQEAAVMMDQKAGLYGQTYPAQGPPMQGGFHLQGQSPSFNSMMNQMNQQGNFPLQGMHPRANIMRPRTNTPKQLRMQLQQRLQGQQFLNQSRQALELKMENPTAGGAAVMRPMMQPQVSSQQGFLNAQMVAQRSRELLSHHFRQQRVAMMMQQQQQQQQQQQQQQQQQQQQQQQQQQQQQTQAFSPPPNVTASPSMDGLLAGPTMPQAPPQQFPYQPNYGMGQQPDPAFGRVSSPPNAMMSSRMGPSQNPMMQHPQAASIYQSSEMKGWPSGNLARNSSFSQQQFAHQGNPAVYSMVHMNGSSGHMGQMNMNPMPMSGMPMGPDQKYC

[5] = target: Peroxisome proliferator-activated receptor gamma/Nuclear receptor coactivator 2 (Homo sapiens, UniProt P37231); assay: (§1) TR-FRET dose response biochemical High Throughput Screening assay for agonists of the steroid receptor coactivator 2 (SRC-2) recruitment by the peroxisome proliferator-activated receptor gamma (PPAR gamma): non-selective agonists. [Related pubchem assays: 1297, 1032 ]; type: functional
[6] = target: Peroxisome proliferator-activated receptor gamma/Nuclear receptor coactivator 1 (Homo sapiens, UniProt P37231); assay: as §1, with “1 (SRC-1)” for “2 (SRC-2)”, “assays (depositor defined):AID1300, AID1808, AID504735, AID631]” for “assays: 1297, 1032 ]”; type: protein assay
Peroxisome proliferator-activated receptor gamma/Nuclear receptor coactivator 1, sequence (P37231 whole entry): as the sequence (P37231 whole entry) above
Peroxisome proliferator-activated receptor gamma/Nuclear receptor coactivator 1, sequence (Q15788 whole entry, further chain): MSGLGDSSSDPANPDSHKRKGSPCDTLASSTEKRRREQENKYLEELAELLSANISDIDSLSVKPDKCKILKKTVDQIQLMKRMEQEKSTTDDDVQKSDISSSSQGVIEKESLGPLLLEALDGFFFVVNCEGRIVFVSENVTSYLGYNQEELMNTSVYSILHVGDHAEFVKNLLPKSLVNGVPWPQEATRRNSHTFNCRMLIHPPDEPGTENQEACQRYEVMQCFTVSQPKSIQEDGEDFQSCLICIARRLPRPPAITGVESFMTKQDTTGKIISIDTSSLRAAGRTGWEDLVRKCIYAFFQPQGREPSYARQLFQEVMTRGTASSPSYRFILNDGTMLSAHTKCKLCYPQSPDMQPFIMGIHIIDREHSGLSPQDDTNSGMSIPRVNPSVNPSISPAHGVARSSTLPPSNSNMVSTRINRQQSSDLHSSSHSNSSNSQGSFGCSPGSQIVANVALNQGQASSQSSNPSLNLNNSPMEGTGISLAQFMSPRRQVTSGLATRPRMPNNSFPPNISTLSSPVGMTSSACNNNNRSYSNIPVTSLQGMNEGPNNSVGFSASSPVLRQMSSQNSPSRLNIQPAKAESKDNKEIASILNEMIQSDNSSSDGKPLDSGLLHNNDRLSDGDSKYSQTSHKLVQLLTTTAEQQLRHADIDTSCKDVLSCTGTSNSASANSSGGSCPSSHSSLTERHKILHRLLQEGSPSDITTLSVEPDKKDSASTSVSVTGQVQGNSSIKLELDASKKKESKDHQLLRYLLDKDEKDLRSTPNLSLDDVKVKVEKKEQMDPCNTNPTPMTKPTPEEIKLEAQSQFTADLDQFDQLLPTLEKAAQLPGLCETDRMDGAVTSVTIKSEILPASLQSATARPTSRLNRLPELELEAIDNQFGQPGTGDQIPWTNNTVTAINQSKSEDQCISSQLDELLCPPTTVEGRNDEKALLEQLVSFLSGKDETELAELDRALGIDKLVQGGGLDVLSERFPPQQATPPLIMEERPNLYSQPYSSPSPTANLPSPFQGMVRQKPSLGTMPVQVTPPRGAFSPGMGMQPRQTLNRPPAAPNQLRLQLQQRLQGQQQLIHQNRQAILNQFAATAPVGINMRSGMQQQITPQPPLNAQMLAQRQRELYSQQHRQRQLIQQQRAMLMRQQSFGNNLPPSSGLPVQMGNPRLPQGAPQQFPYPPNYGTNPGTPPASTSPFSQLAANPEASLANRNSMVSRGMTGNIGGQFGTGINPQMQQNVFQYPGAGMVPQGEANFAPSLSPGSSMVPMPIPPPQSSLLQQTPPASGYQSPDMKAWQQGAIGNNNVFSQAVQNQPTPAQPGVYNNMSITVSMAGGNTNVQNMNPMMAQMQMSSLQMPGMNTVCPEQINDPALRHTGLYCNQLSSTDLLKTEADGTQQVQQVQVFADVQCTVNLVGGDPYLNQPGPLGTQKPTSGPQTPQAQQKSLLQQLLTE

Genome polyprotein = Genome polyprotein (dengue virus type 2, UniProt P29990); assay: Dengue-2 NS5 methyltransferase inhibitors, primary screen, biochemical, confirmation dose response (AID 588689); type: functional
Genome polyprotein, sequence (P29990 2492-3391 limits assumed): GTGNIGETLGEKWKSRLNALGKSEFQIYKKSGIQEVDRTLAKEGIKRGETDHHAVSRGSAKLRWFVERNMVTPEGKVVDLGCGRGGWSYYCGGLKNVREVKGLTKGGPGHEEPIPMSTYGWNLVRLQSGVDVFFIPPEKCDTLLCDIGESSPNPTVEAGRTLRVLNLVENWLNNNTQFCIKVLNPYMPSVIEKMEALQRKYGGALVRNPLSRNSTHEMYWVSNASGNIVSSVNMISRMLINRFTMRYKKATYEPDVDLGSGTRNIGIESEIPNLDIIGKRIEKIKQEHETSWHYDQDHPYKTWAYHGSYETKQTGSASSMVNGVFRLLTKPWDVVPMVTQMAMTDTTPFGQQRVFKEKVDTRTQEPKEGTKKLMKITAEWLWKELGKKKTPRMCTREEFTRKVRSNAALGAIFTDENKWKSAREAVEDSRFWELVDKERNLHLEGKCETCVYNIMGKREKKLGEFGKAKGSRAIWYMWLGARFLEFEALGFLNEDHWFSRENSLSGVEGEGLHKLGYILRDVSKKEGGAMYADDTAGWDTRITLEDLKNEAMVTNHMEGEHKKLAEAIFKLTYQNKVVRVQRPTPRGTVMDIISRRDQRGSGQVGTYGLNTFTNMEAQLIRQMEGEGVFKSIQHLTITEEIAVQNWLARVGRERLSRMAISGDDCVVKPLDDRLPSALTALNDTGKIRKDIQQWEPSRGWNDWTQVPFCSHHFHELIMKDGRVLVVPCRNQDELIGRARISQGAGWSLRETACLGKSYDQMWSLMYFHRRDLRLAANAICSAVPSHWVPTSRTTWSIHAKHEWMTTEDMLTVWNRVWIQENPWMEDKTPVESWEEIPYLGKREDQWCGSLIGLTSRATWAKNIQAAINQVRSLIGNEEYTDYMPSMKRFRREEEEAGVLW

Large T antigen = Large T antigen (Simian virus 40, UniProt P03070); type: functional, Betapolyomavirus macacae;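 note: Confirmatory-stage PubChem screen for compounds that inhibit SV40 T antigen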
[7] = target: T1, Hepatocyte nuclear factor 4-alpha (Homo sapiens, UniProt P41235); type: functional, cell-based;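 note: biochemical luminescence-based dose-response counterscreen measuring inhibition of HNF4 dimerization, run alongside a screen for blockers of ABHD5–perilipin-5 interaction; split luciferase complementation of HNF4 fusion proteins in cell lysate measuring dimerization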
T1 sequence (P41235 whole entry): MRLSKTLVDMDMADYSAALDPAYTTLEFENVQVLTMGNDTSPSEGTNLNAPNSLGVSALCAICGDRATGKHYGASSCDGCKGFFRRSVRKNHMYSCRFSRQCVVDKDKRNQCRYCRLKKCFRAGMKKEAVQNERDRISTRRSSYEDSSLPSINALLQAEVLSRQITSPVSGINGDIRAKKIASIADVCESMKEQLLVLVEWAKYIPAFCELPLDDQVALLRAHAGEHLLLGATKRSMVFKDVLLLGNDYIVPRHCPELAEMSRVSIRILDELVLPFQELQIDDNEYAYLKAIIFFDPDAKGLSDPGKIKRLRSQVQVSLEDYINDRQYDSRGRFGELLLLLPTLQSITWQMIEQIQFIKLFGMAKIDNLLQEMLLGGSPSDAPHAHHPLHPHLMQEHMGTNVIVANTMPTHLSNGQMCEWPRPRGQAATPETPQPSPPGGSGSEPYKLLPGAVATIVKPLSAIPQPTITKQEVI

[8] = target: T2, Rac GTPase-activating protein 1 (Homo sapiens, UniProt Q9H0H5); assay: MgcRacGAP GTPase-activating activity inhibitors, confirmation, biochemical, ADP Hunter fluorescence, primary and confirmatory (AID 624330); type: functional
T2 sequence (Q9H0H5 whole entry): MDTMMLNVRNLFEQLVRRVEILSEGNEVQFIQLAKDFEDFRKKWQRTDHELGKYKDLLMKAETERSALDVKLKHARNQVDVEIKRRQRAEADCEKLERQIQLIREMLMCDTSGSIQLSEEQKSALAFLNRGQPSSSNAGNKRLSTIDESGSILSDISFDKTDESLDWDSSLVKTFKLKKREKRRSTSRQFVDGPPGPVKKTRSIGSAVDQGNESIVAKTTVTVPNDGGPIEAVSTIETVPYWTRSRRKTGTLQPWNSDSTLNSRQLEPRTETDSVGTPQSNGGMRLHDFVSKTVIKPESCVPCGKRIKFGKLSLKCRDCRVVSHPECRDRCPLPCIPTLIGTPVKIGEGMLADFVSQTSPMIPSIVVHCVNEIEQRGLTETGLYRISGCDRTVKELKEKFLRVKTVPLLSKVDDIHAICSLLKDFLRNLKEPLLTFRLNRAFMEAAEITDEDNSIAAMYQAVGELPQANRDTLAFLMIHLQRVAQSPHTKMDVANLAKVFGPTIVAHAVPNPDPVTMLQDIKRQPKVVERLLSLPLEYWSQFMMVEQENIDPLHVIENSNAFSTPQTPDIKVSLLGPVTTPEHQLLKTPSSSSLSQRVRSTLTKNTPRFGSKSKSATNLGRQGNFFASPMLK

[9] = target: T3, DNA repair and recombination protein RAD54-like (Homo sapiens, UniProt Q92698); assay: inhibitors of human RAD54 branch migration, confirmation, biochemical, fluorescence, cherry-picked samples, dose series (AID 651657); type: functional
T3 sequence (Q92698 whole entry): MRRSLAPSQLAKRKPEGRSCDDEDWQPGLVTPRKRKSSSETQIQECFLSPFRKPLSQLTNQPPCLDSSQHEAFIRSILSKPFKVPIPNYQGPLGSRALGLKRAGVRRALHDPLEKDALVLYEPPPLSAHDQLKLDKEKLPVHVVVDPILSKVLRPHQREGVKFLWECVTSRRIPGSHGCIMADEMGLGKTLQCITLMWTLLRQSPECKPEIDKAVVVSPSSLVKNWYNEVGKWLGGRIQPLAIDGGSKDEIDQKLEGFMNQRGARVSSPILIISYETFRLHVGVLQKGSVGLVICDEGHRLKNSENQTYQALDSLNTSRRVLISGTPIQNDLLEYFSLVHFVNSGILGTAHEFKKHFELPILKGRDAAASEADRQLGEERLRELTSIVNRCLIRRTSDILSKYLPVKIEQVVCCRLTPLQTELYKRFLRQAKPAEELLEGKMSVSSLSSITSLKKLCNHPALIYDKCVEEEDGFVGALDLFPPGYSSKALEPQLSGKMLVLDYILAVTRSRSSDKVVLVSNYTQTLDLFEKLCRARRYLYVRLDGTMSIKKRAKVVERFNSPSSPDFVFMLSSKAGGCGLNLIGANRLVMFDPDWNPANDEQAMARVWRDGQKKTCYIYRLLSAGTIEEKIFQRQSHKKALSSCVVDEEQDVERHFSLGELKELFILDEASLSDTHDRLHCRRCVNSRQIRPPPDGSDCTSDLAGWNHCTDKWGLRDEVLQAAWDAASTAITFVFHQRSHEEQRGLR

[10] = target: T4, Heat shock factor protein 1 (Mus musculus, UniProt P38532); assay: inhibition of MG132-induced HSE-luciferase signal, confirmation, cell-based, NIH3T3, luminescence, dose retest (AID 2382); type: functional;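 note: NIH3T3 fibroblasts with HSF1-driven luciferase reporter stressed by proteasome inhibitor MG132; luminescence from HSF1-driven luciferase expression after 8 hours of MG132 stress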
T4 sequence (P38532 whole entry): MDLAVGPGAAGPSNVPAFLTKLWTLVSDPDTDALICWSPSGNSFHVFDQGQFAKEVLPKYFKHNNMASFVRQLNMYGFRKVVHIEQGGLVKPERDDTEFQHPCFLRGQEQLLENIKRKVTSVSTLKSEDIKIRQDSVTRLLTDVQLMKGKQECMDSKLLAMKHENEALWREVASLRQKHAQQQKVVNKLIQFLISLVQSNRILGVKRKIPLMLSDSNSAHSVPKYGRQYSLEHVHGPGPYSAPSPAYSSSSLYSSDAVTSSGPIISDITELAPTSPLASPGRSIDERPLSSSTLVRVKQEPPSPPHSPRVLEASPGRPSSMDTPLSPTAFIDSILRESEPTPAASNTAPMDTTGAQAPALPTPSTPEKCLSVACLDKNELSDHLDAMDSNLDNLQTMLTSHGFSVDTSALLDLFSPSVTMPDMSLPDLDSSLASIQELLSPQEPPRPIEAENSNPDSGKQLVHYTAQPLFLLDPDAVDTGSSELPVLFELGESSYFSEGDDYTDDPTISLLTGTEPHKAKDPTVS

[11] = target: T5, DNA repair protein RAD52 homolog (Homo sapiens, UniProt P43351); type: functional, biochemical
T5 sequence (P43351 whole entry): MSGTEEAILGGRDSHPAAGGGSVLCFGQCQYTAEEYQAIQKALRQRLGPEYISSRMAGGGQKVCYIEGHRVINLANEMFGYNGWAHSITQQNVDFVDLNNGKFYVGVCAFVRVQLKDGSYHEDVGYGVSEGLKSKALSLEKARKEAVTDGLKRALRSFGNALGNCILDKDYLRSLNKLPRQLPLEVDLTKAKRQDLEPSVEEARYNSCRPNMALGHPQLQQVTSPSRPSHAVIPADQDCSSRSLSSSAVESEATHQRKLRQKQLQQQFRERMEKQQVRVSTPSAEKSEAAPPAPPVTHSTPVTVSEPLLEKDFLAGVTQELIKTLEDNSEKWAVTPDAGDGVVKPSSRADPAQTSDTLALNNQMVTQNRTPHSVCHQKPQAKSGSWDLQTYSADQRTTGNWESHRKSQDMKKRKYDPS

[12] = target: T6, Short transient receptor potential channel 4 (Mus musculus, UniProt Q9QUQ5); assay: mouse TRPC4 channel activators, dose response, cell-based, HEK293 TRPC4/mu-opioid, Fluo-4 calcium (AID 434937); type: functional
T6 sequence (Q9QUQ5 whole entry): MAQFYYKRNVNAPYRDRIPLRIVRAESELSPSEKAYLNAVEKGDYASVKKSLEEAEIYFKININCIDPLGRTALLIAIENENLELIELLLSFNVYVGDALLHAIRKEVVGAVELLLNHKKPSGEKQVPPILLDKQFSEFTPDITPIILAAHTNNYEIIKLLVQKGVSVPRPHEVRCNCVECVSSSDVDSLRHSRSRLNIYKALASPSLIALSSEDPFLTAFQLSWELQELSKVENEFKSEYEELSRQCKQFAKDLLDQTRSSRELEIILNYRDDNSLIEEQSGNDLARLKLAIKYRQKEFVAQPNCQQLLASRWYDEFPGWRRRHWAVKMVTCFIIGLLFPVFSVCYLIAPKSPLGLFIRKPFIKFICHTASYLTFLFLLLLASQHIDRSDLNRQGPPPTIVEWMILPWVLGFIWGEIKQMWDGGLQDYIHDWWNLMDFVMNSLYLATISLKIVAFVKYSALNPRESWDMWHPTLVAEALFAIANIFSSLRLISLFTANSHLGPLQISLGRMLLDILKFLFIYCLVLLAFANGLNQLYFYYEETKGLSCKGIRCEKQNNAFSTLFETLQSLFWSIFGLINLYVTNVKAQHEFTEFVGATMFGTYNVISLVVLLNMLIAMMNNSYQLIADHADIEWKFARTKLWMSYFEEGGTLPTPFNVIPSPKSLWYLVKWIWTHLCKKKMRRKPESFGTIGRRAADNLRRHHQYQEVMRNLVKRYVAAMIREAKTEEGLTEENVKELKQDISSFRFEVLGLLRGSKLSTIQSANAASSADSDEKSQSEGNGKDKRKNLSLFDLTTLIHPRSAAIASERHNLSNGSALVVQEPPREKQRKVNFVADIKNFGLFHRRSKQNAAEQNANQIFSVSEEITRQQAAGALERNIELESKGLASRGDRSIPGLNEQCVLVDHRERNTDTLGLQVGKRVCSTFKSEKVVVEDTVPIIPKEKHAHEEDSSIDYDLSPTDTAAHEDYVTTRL

[13] = target: T6, Short transient receptor potential channel 4; assay: mouse TRPC4 channel inhibitors, dose response, cell-based, HEK293 TRPC4/mu-opioid, Fluo-4 calcium (AID 434942); type: functional;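 note: potency of inhibitors blocking the TRPC4 calcium response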

SMILES: CC1=CC(=NOC(=O)/C=C/c2ccccc2)C=C(C)C1=O
EC50 [1]: 14 µM (active)
EC50 [2]: 13.6 µM (active)
IC50 [3]: > 80 µM (inactive)

SMILES: CC(Nc1ccc(Br)cn1)c1cc(Cl)ccc1O (stereo unspecified)
EC50 [4]: 3.26 µM (active)
EC50 [5]: 4.73 µM (active)
EC50 [6]: 6.3 µM (active)

SMILES: O=C(Nc1nc2c(s1)COc1ccccc1-2)c1cccs1
EC50 [4]: > 79.4 µM (not active)
EC50 [5]: 19.7 µM (not active)
EC50 [6]: 28.5 µM (inactive)

SMILES: Cc1onc(-c2c(F)cccc2Cl)c1C(=O)Nc1nnc(-c2ccccc2)s1
EC50 [4]: > 79.4 µM (not active)
EC50 [5]: 29.8 µM (not active)
EC50 [6]: 446 µM (inactive)

SMILES: COc1ccc(/C=C/C(=O)c2cc(F)ccc2OC(=O)c2ccc(OC)c(OC)c2)cc1OC
IC50 [7]: 5.27 µM (active)

SMILES: Cc1ccc(S(=O)(=O)NCCC(=O)NCC(c2ccco2)N2CCCCC2)cc1C (stereo unspecified)
EC50 [13]: 0.168 µM (active)
EC50 [12]: 0.944 µM (active)

The next lines start with the values.

EC50 [4]: 8.27 µM (active)
EC50 [5]: > 79.4 µM (not active)
EC50 [6]: > 79.4 µM (inactive)
IC50 (Genome polyprotein): 60.6 µM (active)
SMILES: COc1cc(/C=C(\C#N)C(=O)Nc2ccccc2C(=O)O)cc(Cl)c1OC

IC50 (Large T antigen): 39.4 µM (active)
IC50 [7]: 9.21 µM (active)
IC50 [8]: 156 µM (active)
SMILES: O=S(=O)(NC1=NCCCCC1)c1ccc2sc(NS(=O)(=O)c3ccc4ccccc4c3)nc2c1

IC50 (Genome polyprotein): 37 µM (active)
SMILES: Cc1ccc(-c2csc3nc(SCC(=O)Nc4ccc(Cl)c(C(=O)O)c4)nc(O)c23)cc1

IC50 (Genome polyprotein): 70.6 µM (active)
SMILES: Cc1ccc(S(=O)(=O)Nc2nc(-c3ccc(F)cc3)cs2)cc1

AC50 [9]: 11.1 µM (active)
EC50 [10]: > 195 µM (not active)
AC50 [11]: 5.59 µM (active)
SMILES: COc1ccccc1Nc1nc(NCCCN(C)C)nc(N)c1[N+](=O)[O-]

AC50 [9]: 56.4 µM (active)
EC50 [12]: 5.96 µM (active)
SMILES: CN(C)CCNC(=O)c1c(NC(=O)c2ccccc2)sc2c1CCCC2

AC50 [9]: 10.3 µM (active)
AC50 [11]: 10 µM (active)
SMILES: CCN(CC)Cc1cc(Nc2ccnc3cc(Cl)ccc23)ccc1O
